Reference: paper doi:10.1101/2024.07.14.603434v1 (biorxiv, 2024)

Key:
NagA = target: T1, NagA (Streptomyces coelicolor, UniProt Q9KXV7); assay: decrease of amide absorbance at […] nm; format: biochemical; conditions: phosphate buffer pH 7.4, 30 °C
T1 sequence (Q9KXV7 1-381): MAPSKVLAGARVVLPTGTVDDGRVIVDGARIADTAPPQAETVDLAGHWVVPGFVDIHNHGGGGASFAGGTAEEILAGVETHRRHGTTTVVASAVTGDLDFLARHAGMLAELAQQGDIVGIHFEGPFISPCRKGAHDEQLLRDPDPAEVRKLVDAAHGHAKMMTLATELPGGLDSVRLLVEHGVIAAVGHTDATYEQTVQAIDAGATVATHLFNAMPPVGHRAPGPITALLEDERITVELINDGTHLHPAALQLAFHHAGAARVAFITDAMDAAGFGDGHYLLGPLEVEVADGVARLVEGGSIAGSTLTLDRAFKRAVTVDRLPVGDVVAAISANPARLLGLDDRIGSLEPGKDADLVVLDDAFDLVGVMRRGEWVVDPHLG

NagS = target: T2, NagS (Streptomyces coelicolor, UniProt Q9K3V1); assay: UV absorbance of product at […] nm; format: biochemical; conditions: 100 mM phosphate, 100 mM NaCl, pH 7.4 buffer stock; 30 °C
T2 sequence (Q9K3V1 1-251): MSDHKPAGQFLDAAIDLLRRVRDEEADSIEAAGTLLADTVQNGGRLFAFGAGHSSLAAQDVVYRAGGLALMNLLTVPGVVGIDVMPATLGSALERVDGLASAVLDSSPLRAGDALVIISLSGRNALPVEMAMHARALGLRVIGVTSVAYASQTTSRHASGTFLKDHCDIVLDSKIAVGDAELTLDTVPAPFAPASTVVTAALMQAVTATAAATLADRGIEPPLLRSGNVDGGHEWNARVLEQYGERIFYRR

Structure (SMILES)	Km (NagA) [µM]	Km (NagS) [µM]
CC(=O)N[C@H]1C(O)O[C@H](COP(=O)(O)O)[C@H](O)[C@@H]1O (some centres unmarked) [GalNAc-6P]	2840 ± 410	
CC(=O)N[C@H]1C(O)O[C@H](COP(=O)(O)O)[C@@H](O)[C@@H]1O (some centres unmarked) [GlcNAc-6P]	1590 ± 210	450 ± 30
CC(=O)N[C@@H]1C(O)O[C@H](COP(=O)(O)O)[C@@H](O)[C@@H]1O (some centres unmarked) [ManNAc-6P]	2400 ± 440	680 ± 50
